In paper PMC5218480 (PLoS ONE, 2017):

Tested on: MV-4-11 cells
Assay: Gene expression microarray analysis (Affymetrix PrimeView) and GSEA
Type: cell-based, human
Design: RFU PODN (11730768_x_at) / Fold change /veh PODN (11730768_x_at) / RFU LINC00158 (11744669_a_at) / Fold change /veh LINC00158 (11744669_a_at) / RFU DUSP10 (11751237_a_at) / Fold change /veh DUSP10 (11751237_a_at) / RFU ID3 (11757404_x_at) / Fold change /veh ID3 (11757404_x_at) / RFU PLEKHG5 (11737974_s_at) / Fold change /veh PLEKHG5 (11737974_s_at) / RFU LRRC4B (11730491_at) / Fold change /veh LRRC4B (11730491_at) / RFU GIMAP4 (11747438_a_at) / Fold change /veh GIMAP4 (11747438_a_at) / RFU KRT8 (11758183_x_at) / Fold change /veh KRT8 (11758183_x_at) / RFU CNN1 (11734310_a_at) / Fold change /veh CNN1 (11734310_a_at) / RFU VPS37D (11726825_at) / Fold change /veh VPS37D (11726825_at) / RFU C10orf10 (11716522_x_at) / Fold change /veh C10orf10 (11716522_x_at) / RFU KIR2DL2 /// KIR2DL4 /// KIR2DL5A /// KIR2DL5B /// KIR2DS1 /// KIR2DS2 /// KIR2DS3 /// KIR2DS4 /// KIR3DL3 /// KIR3DL3 /// KIR3DS1 (11738374_at) / Fold change /veh KIR2DL2 /// KIR2DL4 /// KIR2DL5A /// KIR2DL5B /// KIR2DS1 /// KIR2DS2 /// KIR2DS3 /// KIR2DS4 /// KIR3DL3 /// KIR3DL3 /// KIR3DS1 (11738374_at) / RFU C1QL1 (11718748_at) / Fold change /veh C1QL1 (11718748_at) / RFU TMPRSS4 (11747572_a_at) / Fold change /veh TMPRSS4 (11747572_a_at) / RFU HAMP (11756126_x_at) / Fold change /veh HAMP (11756126_x_at) / RFU RNFT2 (11725882_a_at) / Fold change /veh RNFT2 (11725882_a_at) / RFU NR4A2 (11747474_a_at) / Fold change /veh NR4A2 (11747474_a_at) / RFU ABCC12 (11746883_a_at) / Fold change /veh ABCC12 (11746883_a_at) / RFU TMEM136 (11760407_x_at) / Fold change /veh TMEM136 (11760407_x_at) / RFU CLDN22 /// WWC2 (11732394_at) / Fold change /veh CLDN22 /// WWC2 (11732394_at) / RFU HLA-DPB1 (11760878_x_at) / Fold change /veh HLA-DPB1 (11760878_x_at) / RFU SPINT1 (11716480_a_at) / Fold change /veh SPINT1 (11716480_a_at) / RFU GAP43 (11754022_s_at) / Fold change /veh GAP43 (11754022_s_at) / RFU A4GNT (11735810_at) / Fold change /veh A4GNT (11735810_at) / RFU PRB3 (11715151_x_at) / Fold change /veh PRB3 (11715151_x_at) / RFU TUBB4B (11761932_at) / Fold change /veh TUBB4B (11761932_at) / RFU CAPN14 (11732068_a_at) / Fold change /veh CAPN14 (11732068_a_at) / RFU TMCC2 (11721928_a_at) / Fold change /veh TMCC2 (11721928_a_at) / RFU IRGQ (11745062_a_at) / Fold change /veh IRGQ (11745062_a_at) / RFU FAM174B (11720279_a_at) / Fold change /veh FAM174B (11720279_a_at) / RFU TMPRSS4 (11748680_a_at) / Fold change /veh TMPRSS4 (11748680_a_at) / RFU FAM212B (11763350_a_at) / Fold change /veh FAM212B (11763350_a_at) / RFU PLEKHG5 (11743358_a_at) / Fold change /veh PLEKHG5 (11743358_a_at) / RFU ZSCAN30 (11745921_a_at) / Fold change /veh ZSCAN30 (11745921_a_at) / RFU CMKLR1 (11741424_a_at) / Fold change /veh CMKLR1 (11741424_a_at) / RFU LOC101060620 /// MAPK8IP1 (11723275_at) / Fold change /veh LOC101060620 /// MAPK8IP1 (11723275_at) / RFU SPTSSB (11747773_x_at) / Fold change /veh SPTSSB (11747773_x_at) / RFU PRSS12 (11739890_at) / Fold change /veh PRSS12 (11739890_at) / RFU BIN1 (11741810_x_at) / Fold change /veh BIN1 (11741810_x_at) / RFU WNT11 (11732464_a_at) / Fold change /veh WNT11 (11732464_a_at) / RFU C10orf10 (11716521_a_at) / Fold change /veh C10orf10 (11716521_a_at) / RFU C5orf56 (11738089_at) / Fold change /veh C5orf56 (11738089_at) / RFU CYB561 (11721691_x_at) / Fold change /veh CYB561 (11721691_x_at) / RFU ANKRD19P (11752326_a_at) / Fold change /veh ANKRD19P (11752326_a_at) / RFU OR2T12 /// OR2T33 /// OR2T8 (11738714_s_at) / Fold change /veh OR2T12 /// OR2T33 /// OR2T8 (11738714_s_at) / RFU VCAN (11748164_a_at) / Fold change /veh VCAN (11748164_a_at) / RFU JSRP1 (11732532_at) / Fold change /veh JSRP1 (11732532_at) / RFU KRTAP10-11 (11738290_x_at) / Fold change /veh KRTAP10-11 (11738290_x_at) / RFU MYO3A (11730013_a_at) / Fold change /veh MYO3A (11730013_a_at) / RFU EBF3 (11725865_a_at) / Fold change /veh EBF3 (11725865_a_at) / RFU CAMK2N1 (11719241_x_at) / Fold change /veh CAMK2N1 (11719241_x_at) / RFU C5orf56 (11738088_a_at) / Fold change /veh C5orf56 (11738088_a_at) / RFU OLFML3 (11715873_a_at) / Fold change /veh OLFML3 (11715873_a_at) / RFU LOC100653217 /// NTM (11731650_a_at) / Fold change /veh LOC100653217 /// NTM (11731650_a_at) / RFU MAPK11 (11762145_a_at) / Fold change /veh MAPK11 (11762145_a_at) / RFU FIZ1 (11724087_x_at) / Fold change /veh FIZ1 (11724087_x_at) / RFU OASL (11726364_x_at) / Fold change /veh OASL (11726364_x_at) / RFU SOX15 (11748057_x_at) / Fold change /veh SOX15 (11748057_x_at) / RFU CD79A (11719716_a_at) / Fold change /veh CD79A (11719716_a_at) / RFU HIST1H1D (11736915_at) / Fold change /veh HIST1H1D (11736915_at) / RFU CASKIN2 (11723855_a_at) / Fold change /veh CASKIN2 (11723855_a_at) / RFU LOC730098 (11760151_x_at) / Fold change /veh LOC730098 (11760151_x_at) / RFU OR4N2 (11742367_at) / Fold change /veh OR4N2 (11742367_at) / RFU PRRT2 (11749266_a_at) / Fold change /veh PRRT2 (11749266_a_at) / RFU SNX32 (11753110_a_at) / Fold change /veh SNX32 (11753110_a_at) / RFU CDHR5 (11726645_a_at) / Fold change /veh CDHR5 (11726645_a_at) / RFU RCAN1 (11760418_a_at) / Fold change /veh RCAN1 (11760418_a_at) / RFU FAM167A (11723789_a_at) / Fold change /veh FAM167A (11723789_a_at) / RFU FAM26E (11764081_at) / Fold change /veh FAM26E (11764081_at) / RFU ISYNA1 (11749810_s_at) / Fold change /veh ISYNA1 (11749810_s_at) / RFU ACY1 (11761880_at) / Fold change /veh ACY1 (11761880_at) / RFU 11764098_at / Fold change /veh 11764098_at / RFU SAMD14 (11745864_x_at) / Fold change /veh SAMD14 (11745864_x_at) / RFU NPB (11741838_a_at) / Fold change /veh NPB (11741838_a_at) / RFU TMPRSS6 (11731388_a_at) / Fold change /veh TMPRSS6 (11731388_a_at) / RFU KRTAP10-2 (11738614_at) / Fold change /veh KRTAP10-2 (11738614_at) / RFU ARHGAP8 /// PRR5-ARHGAP8 (11727945_x_at) / Fold change /veh ARHGAP8 /// PRR5-ARHGAP8 (11727945_x_at) / RFU KRTAP5-7 /// NADSYN1 (11734609_at) / Fold change /veh KRTAP5-7 /// NADSYN1 (11734609_at) / RFU RASL12 (11751679_a_at) / Fold change /veh RASL12 (11751679_a_at) / RFU CDKN2B (11736163_a_at) / Fold change /veh CDKN2B (11736163_a_at) / RFU PRF1 (11729649_at) / Fold change /veh PRF1 (11729649_at) / RFU, ZNF638 /// ZNF638-IT1 / Fold change vs veh, ZNF638 /// ZNF638-IT1 / RFU, PANK3 / Fold change vs veh, PANK3 / RFU, SH3YL1 / Fold change vs veh, SH3YL1 / RFU, ZEB2 / Fold change vs veh, ZEB2 / RFU, NRIP1 / Fold change vs veh, NRIP1 / RFU, PTTG1IP / Fold change vs veh, PTTG1IP / RFU, CAPN2 / Fold change vs veh, CAPN2 / RFU, MED14 / Fold change vs veh, MED14 / RFU, SNORA58 / Fold change vs veh, SNORA58 / RFU, C1orf63 / Fold change vs veh, C1orf63 / RFU, LRRFIP1 / Fold change vs veh, LRRFIP1 / RFU, NDUFAF7 / Fold change vs veh, NDUFAF7 / RFU, SLC12A2 / Fold change vs veh, SLC12A2 / RFU, IBTK / Fold change vs veh, IBTK / RFU, ESF1 / Fold change vs veh, ESF1 / Fold change vs veh, TMEM50B / RFU, TAOK1 / Fold change vs veh, TAOK1 / RFU, ACBD3 / Fold change vs veh, ACBD3 / RFU, TMA16 / Fold change vs veh, TMA16 / RFU, RWDD3 / Fold change vs veh, RWDD3 / RFU, BCAT1 / Fold change vs veh, BCAT1 / RFU, EDEM3 / Fold change vs veh, EDEM3 / RFU, TMEM33 / Fold change vs veh, TMEM33 / RFU, WDR75 / Fold change vs veh, WDR75 / RFU, AHCTF1 / Fold change vs veh, AHCTF1 / RFU, TFRC / Fold change vs veh, TFRC / RFU, ZDHHC17 / Fold change vs veh, ZDHHC17 / RFU, NOM1 / Fold change vs veh, NOM1 / RFU, ARL8B / Fold change vs veh, ARL8B / RFU, ZBTB11 / Fold change vs veh, ZBTB11 / RFU, TAMM41 / Fold change vs veh, TAMM41 / RFU, KIAA1704 /// LOC100996395 / Fold change vs veh, KIAA1704 /// LOC100996395 / RFU, ING1 / Fold change vs veh, ING1 / RFU, TRMT61B / Fold change vs veh, TRMT61B / RFU, FUBP3 / Fold change vs veh, FUBP3 / RFU, TP53 / Fold change vs veh, TP53 / RFU, TNKS2 / Fold change vs veh, TNKS2 / RFU, ZFP14 / Fold change vs veh, ZFP14 / RFU, ACTR2 / Fold change vs veh, ACTR2 / RFU, PPP3R1 / Fold change vs veh, PPP3R1 / RFU, PIK3R1 / Fold change vs veh, PIK3R1 / RFU, HNRNPA1 / Fold change vs veh, HNRNPA1 / RFU, RNF170 / Fold change vs veh, RNF170 / RFU, ZNF28 / Fold change vs veh, ZNF28 / RFU, RNGTT / Fold change vs veh, RNGTT / RFU, OGT / Fold change vs veh, OGT / RFU, BRD1 / Fold change vs veh, BRD1 / RFU, MARS / Fold change vs veh, MARS / RFU, ZNF655 / Fold change vs veh, ZNF655 / RFU, FAHD1 / Fold change vs veh, FAHD1 / RFU, BDP1 / Fold change vs veh, BDP1 / RFU, LRRCC1 / Fold change vs veh, LRRCC1 / RFU, ARID1A / Fold change vs veh, ARID1A / RFU, ZNF146 / Fold change vs veh, ZNF146 / RFU, ZNF330 / Fold change vs veh, ZNF330 / RFU, GPN3 / Fold change vs veh, GPN3 / RFU, C9orf123 / Fold change vs veh, C9orf123 / RFU, N4BP2L2 / Fold change vs veh, N4BP2L2 / RFU, ARFIP1 / Fold change vs veh, ARFIP1 / RFU, FAM179B / Fold change vs veh, FAM179B / RFU, BCL10 / Fold change vs veh, BCL10 / RFU, UHRF1BP1L / Fold change vs veh, UHRF1BP1L / RFU, BET1 / Fold change vs veh, BET1 / RFU, CNOT2 / Fold change vs veh, CNOT2 / RFU, ZNF268 / Fold change vs veh, ZNF268 / Fold change vs veh, ZNF507 / RFU, DGCR2 / Fold change vs veh, DGCR2 / RFU, WDSUB1 / Fold change vs veh, WDSUB1 / Fold change vs veh, HSP90B1 /// MIR3652 / RFU, ADSS / Fold change vs veh, ADSS / RFU, GK / Fold change vs veh, GK / RFU, ZNF148 / Fold change vs veh, ZNF148 / RFU, TAF9 / Fold change vs veh, TAF9 / RFU, SLC1A5 / Fold change vs veh, SLC1A5 / RFU, SLMO2 / Fold change vs veh, SLMO2 / RFU, ABCC4 / Fold change vs veh, ABCC4 / RFU, LOC101060439 /// RAP1B / Fold change vs veh, LOC101060439 /// RAP1B / RFU, RFX7 / Fold change vs veh, RFX7 / RFU, GTPBP10 / Fold change vs veh, GTPBP10 / RFU, CNEP1R1 / Fold change vs veh, CNEP1R1 / RFU, BIVM-ERCC5 /// ERCC5 / Fold change vs veh, BIVM-ERCC5 /// ERCC5 / RFU, ILF3 / Fold change vs veh, ILF3 / RFU 11762660_at / Fold change /veh 11762660_at / RFU VCAN (11757783_s_at) / Fold change /veh VCAN (11757783_s_at) / RFU DDX43 (11728927_at) / Fold change /veh DDX43 (11728927_at) / RFU KRT8 (11758188_x_at) / Fold change /veh KRT8 (11758188_x_at) / RFU NKD1 (11759106_at) / Fold change /veh NKD1 (11759106_at) / RFU SRD5A1 (11742802_a_at) / Fold change /veh SRD5A1 (11742802_a_at) / RFU TPSAB1 /// TPSB2 (11721975_s_at) / Fold change /veh TPSAB1 /// TPSB2 (11721975_s_at) / RFU GSTM3 (11746129_a_at) / Fold change /veh GSTM3 (11746129_a_at) / RFU IL23R (11737362_x_at) / Fold change /veh IL23R (11737362_x_at) / RFU TMEM51 (11727254_a_at) / Fold change /veh TMEM51 (11727254_a_at) / RFU PIWIL2 (11732686_x_at) / Fold change /veh PIWIL2 (11732686_x_at) / RFU ORM1 (11744905_x_at) / Fold change /veh ORM1 (11744905_x_at) / RFU CCDC152 (11743942_at) / Fold change /veh CCDC152 (11743942_at) / RFU ECM1 (11717891_a_at) / Fold change /veh ECM1 (11717891_a_at) / RFU IL23R (11748794_a_at) / Fold change /veh IL23R (11748794_a_at) / RFU TNFAIP8L3 (11732012_x_at) / Fold change /veh TNFAIP8L3 (11732012_x_at) / RFU MBOAT4 (11741988_at) / Fold change /veh MBOAT4 (11741988_at) / RFU 11764193_at / Fold change /veh 11764193_at / RFU TMEM53 (11763286_at) / Fold change /veh TMEM53 (11763286_at) / RFU MAGEB2 (11727129_at) / Fold change /veh MAGEB2 (11727129_at) / RFU TMEM200A (11744735_a_at) / Fold change /veh TMEM200A (11744735_a_at) / RFU CCDC152 (11751479_a_at) / Fold change /veh CCDC152 (11751479_a_at) / RFU FAM211A (11726209_a_at) / Fold change /veh FAM211A (11726209_a_at) / RFU RGS16 (11746705_a_at) / Fold change /veh RGS16 (11746705_a_at) / RFU VCAN (11755009_s_at) / Fold change /veh VCAN (11755009_s_at) / RFU RHOB (11743442_s_at) / Fold change /veh RHOB (11743442_s_at) / RFU RGS16 (11720943_a_at) / Fold change /veh RGS16 (11720943_a_at) / RFU RGS16 (11720944_at) / Fold change /veh RGS16 (11720944_at) / RFU, VPS4B / Fold change vs veh, VPS4B / RFU, CREB1 / Fold change vs veh, CREB1 / RFU, DNAJC13 / Fold change vs veh, DNAJC13 / RFU, GNAQ / Fold change vs veh, GNAQ / RFU, CDK5R1 / Fold change vs veh, CDK5R1 / RFU, ZRANB3 / Fold change vs veh, ZRANB3 / RFU, CUL4A / Fold change vs veh, CUL4A / RFU, CCNY / Fold change vs veh, CCNY / RFU, UFL1 / Fold change vs veh, UFL1 / RFU, COG3 / Fold change vs veh, COG3 / RFU, DIAPH2 / Fold change vs veh, DIAPH2 / RFU, SKA2 / Fold change vs veh, SKA2 / RFU, AFF3 / Fold change vs veh, AFF3 / RFU, LMF1 / Fold change vs veh, LMF1 / RFU, IPO11 / Fold change vs veh, IPO11 / RFU, DFFB / Fold change vs veh, DFFB / RFU, FOXP1 / Fold change vs veh, FOXP1 / RFU, CARD8 / Fold change vs veh, CARD8 / RFU, STRN3 / Fold change vs veh, STRN3 / RFU, ADK / Fold change vs veh, ADK / RFU, RASSF2 / Fold change vs veh, RASSF2 / RFU, WIPF1 / Fold change vs veh, WIPF1 / RFU, LARP1B / Fold change vs veh, LARP1B / RFU, RASA1 / Fold change vs veh, RASA1 / RFU, RB1 / Fold change vs veh, RB1 / RFU, PPFIA1 / Fold change vs veh, PPFIA1 / RFU, MAT2A / Fold change vs veh, MAT2A / RFU, CCT5 / Fold change vs veh, CCT5 / RFU, WDR92 / Fold change vs veh, WDR92 / RFU, CUX1 / Fold change vs veh, CUX1 / RFU, TTC7A / Fold change vs veh, TTC7A / RFU, TMEM135 / Fold change vs veh, TMEM135 / RFU, DEPTOR / Fold change vs veh, DEPTOR / RFU, CPM / Fold change vs veh, CPM / RFU, DNAJB6 / Fold change vs veh, DNAJB6 / RFU, CACNA2D3 / Fold change vs veh, CACNA2D3 / RFU, DTX4 / Fold change vs veh, DTX4 / RFU, TFCP2 / Fold change vs veh, TFCP2 / RFU, GMCL1 /// GMCL1P1 / Fold change vs veh, GMCL1 /// GMCL1P1 / RFU, AEBP2 / Fold change vs veh, AEBP2 / RFU, SNHG1 /// SNORD22 /// SNORD25 /// SNORD26 /// SNORD27 /// SNORD28 /// SNORD29 /// SNORD31 / Fold change vs veh, SNHG1 /// SNORD22 /// SNORD25 /// SNORD26 /// SNORD27 /// SNORD28 /// SNORD29 /// SNORD31 / Fold change (Aza/veh), C12orf56 (ProbeSet 11735607_a_at) / Fold change (ACY-1035/veh), C12orf56 (ProbeSet 11735607_a_at) / Fold change (Aza/veh), FGFR1OP (ProbeSet 11751329_s_at) / Fold change (ACY-1035/veh), FGFR1OP (ProbeSet 11751329_s_at) / Fold change (Aza/veh), VPS36 (ProbeSet 11739960_a_at) / Fold change (ACY-1035/veh), VPS36 (ProbeSet 11739960_a_at) / RFU SYPL1 (11715823_x_at) / Fold change /veh SYPL1 (11715823_x_at) / RFU IGFBP7 (11715501_s_at) / Fold change /veh IGFBP7 (11715501_s_at) / RFU REEP3 (11722064_at) / Fold change /veh REEP3 (11722064_at) / RFU IGLL1 (11728026_x_at) / Fold change /veh IGLL1 (11728026_x_at): dose or concentration left out as unconfirmed
Settings: ProbeSet 11763166_a_at; LIST B

Compound: Nc1ncn([C@@H]2O[C@H](CO)[C@@H](O)[C@H]2O)c(=O)n1 [azacitidine]
- Fold change vs veh, MARS: 0.85
